Test results from patent publication US10441663B2, “Methods for treating cancer” (Bicycle Therapeutics Limited, priority 2016, dated 2019).
*1 amine or outer side, *2 acyl side, *3 side chain or, on linkers, in order; H or OH if unused. Where a SMILES comes first, the peptide text is derived from it. Bridges are numbered along the chain shown (N, C = ends). [ ]: non-standard residue; d: D form. The star is where a group is joined. X1 = COc1cc2cc(c1Cl)N(C)C(=O)C[C@H](OC(=O)[C@H](C)N(C)C(=O)CCSSC(C)CCC(=O)*)[C@]1(C)O[C@H]1[C@H](C)[C@@H]1C[C@@](O)(NC(=O)O1)[C@H](OC)/C=C/C=C(\C)C2; 1Nal = N[C@@H](Cc1cccc2ccccc12)C(=O)O; TBMB = c1c(C[*:1])cc(C[*:3])cc1C[*:2]; Tle = CC(C)(C)[C@H](N)C(=O)O; βAla = NCCC(=O)O; Sar = CNCC(=O)O

Tested on: NCI-H1975 xenograft
Assay: In vivo efficacy of BT1718 in NCI-H1975 xenograft
Set-up: species or system Mus Musculus; key to Best response at 10 mg/kg: CR complete response; PR partial response
Method: The objective of this study was to evaluate the in vivo anti-tumor efficacy of BT1718in treatment of HT1080, NCI-H292, NCI-H1975, MDA-MB-231, HCC1806, RPMI2650, HCT-15, HT-29 and SNU-16 xenograft in BALB/c nude mice.
The HT1080, NCI-H292, NCI-H1975, MDA-MB-231, HCC1806, RPMI2650, HCT-15, HT-29 and SNU-16 tumor cells were maintained in vitro as a monolayer culture in medium supplemented with 10% heat inactivated fetal bovine serum at 37° C. in an […]. The tumor cells will be routinely subcultured twice weekly by trypsin-EDTA treatment. The cells growing in an exponential growth phase will be harvested and counted for tumor inoculation.
Mouse was inoculated subcutaneously at the right flank with tumor cells for tumor development. The animals were randomized and treatment was started when the average tumor reaches certain volume for the efficacy study, the inoculating cell amounts and starting tumor size were shown as below in Table 9. The test article administration and the animal numbers in each group were shown in the experimental design in Table 10.
All the procedures related to animal handling, care and the treatment in the study were performed according to the guidelines of the Association for Assessment and Accreditation of Laboratory Animal Care (AAALAC). At the time of routine monitoring, the animals were daily checked for any effects of tumor growth and treatments on normal behavior such as mobility, food and water consumption (by looking only), body weight gain/loss (body weights were measured every day), eye/hair matting and any other abnormal effect as stated in the protocol. Death and observed clinical signs were recorded on the basis of the numbers of animals within each subset.
The major endpoint was to see if the tumor growth could be delayed or mice could be cured. Tumor size was measured three times weekly in two dimensions using a caliper, and the volume was expressed in mm^3 using the formula: V=0.5 a×b^2 where a and b are the long and short diameters of the tumor, respectively. The tumor size was then used for calculations of T/C value. The T/C value (in percent) is an indication of antitumor effectiveness; T and C are the mean volumes of the treated and control groups, respectively, on a given day.
TGI was calculated for each group using the formula: TGI (%)=[1−(Ti−T0)/(Vi−V0)]×100; Ti is the average tumor volume of a treatment group on a given day, T0 is the average tumor volume of the treatment group on the day of treatment start, Vi is the average tumor volume of the vehicle control group on the same day with Ti, and V0 is the average tumor volume of the vehicle group on the day of treatment start.
Summary statistics, including mean and the standard error of the mean (SEM), are provided for the tumor volume of each group at each time point.
Statistical analysis of difference in tumor volume among the groups was conducted on the data obtained at the best therapeutic time point after the final dose.
A one-way ANOVA was performed to compare tumor volume among groups, and when a significant F-statistics (a ratio of treatment variance to the error variance) was obtained, comparisons between groups were carried out with Games-Howell test. All data were analyzed using Prism. P<0.05 was considered to be statistically significant.

Compound: COc1cc2cc(c1Cl)N(C)C(=O)C[C@H](OC(=O)[C@H](C)N(C)C(=O)CCSSC(C)CCC(=O)NCCC(=O)N(C)CC(=O)N(C)CC(=O)N(C)CC(=O)N(C)CC(=O)N(C)CC(=O)N(C)CC(=O)N(C)CC(=O)N(C)CC(=O)N(C)CC(=O)N(C)CC(=O)N[C@@H](C)C(=O)N[C@H]1CSCc3cc4cc(c3)CSC[C@H](NC(=O)[C@@H](C)NC(=O)[C@H](Cc3cccc5ccccc35)NC(=O)[C@H](CCC(=O)O)NC(=O)[C@H](CC(N)=O)NC(=O)[C@@H](C)NC1=O)C(=O)N[C@@H](CCC(=O)O)C(=O)N[C@@H](CC(=O)O)C(=O)N[C@@H](Cc1ccccc1)C(=O)N[C@@H](Cc1ccc(O)cc1)C(=O)N[C@@H](CC(=O)O)C(=O)N[C@@H](C(C)(C)C)C(=O)N[C@H](C(N)=O)CSC4)[C@]1(C)O[C@H]1[C@H](C)[C@@H]1C[C@@](O)(NC(=O)O1)[C@H](OC)/C=C/C=C(\C)C2 (stereo partly shown) [BT1718] ({X1-βAla}-[Sar][Sar][Sar][Sar][Sar][Sar][Sar][Sar][Sar][Sar]AC[dA]NE[1Nal][dA]CEDFYD[Tle]C-NH2; linker 12-18-25 via TBMB (inferred))
- Body Weight (1 mpk biw, day 0): 23.9 ± 0.7 g
- Tumor Volume (1 mpk biw, day 0): 170 ± 9 mm^3
- Body Weight (1 mpk biw, day 2): 23.5 ± 0.7 g
- Tumor Volume (1 mpk biw, day 2): 224 ± 33 mm^3
- Body Weight (1 mpk biw, day 4): 24.0 ± 0.9 g
- Tumor Volume (1 mpk biw, day 4): 352 ± 69 mm^3
- Body Weight (1 mpk biw, day 7): 24.4 ± 0.7 g
- Tumor Volume (1 mpk biw, day 7): 587 ± 134 mm^3
- Body Weight (1 mpk biw, day 9): 24.6 ± 0.8 g
- Tumor Volume (1 mpk biw, day 9): 840 ± 155 mm^3
- Body Weight (1 mpk biw, day 11): 25.2 ± 1.1 g
- Tumor Volume (1 mpk biw, day 11): 1265 ± 144 mm^3
- Body Weight (1 mpk biw, day 14): 26.0 ± 1.0 g
- Tumor Volume (1 mpk biw, day 14): 1455 ± 130 mm^3
- Body Weight (3 mpk biw, day 0): 23.6 ± 0.4 g
- Tumor Volume (3 mpk biw, day 0): 166 ± 13 mm^3
- Body Weight (3 mpk biw, day 2): 23.6 ± 0.5 g
- Tumor Volume (3 mpk biw, day 2): 241 ± 20 mm^3
- Body Weight (3 mpk biw, day 4): 24.0 ± 0.8 g
- Tumor Volume (3 mpk biw, day 4): 377 ± 38 mm^3
- Body Weight (3 mpk biw, day 7): 24.8 ± 0.8 g
- Tumor Volume (3 mpk biw, day 7): 605 ± 84 mm^3
- Body Weight (3 mpk biw, day 9): 24.4 ± 0.9 g
- Tumor Volume (3 mpk biw, day 9): 732 ± 95 mm^3
- Body Weight (3 mpk biw, day 11): 25.1 ± 0.8 g
- Tumor Volume (3 mpk biw, day 11): 1095 ± 207 mm^3
- Body Weight (3 mpk biw, day 14): 25.0 ± 0.7 g
- Tumor Volume (3 mpk biw, day 14): 1343 ± 349 mm^3
- Body Weight (10 mpk biw, day 0): 23.3 ± 1.4 g
- Tumor Volume (10 mpk biw, day 0): 168 ± 6 mm^3
- Body Weight (10 mpk biw, day 2): 22.5 ± 1.7 g
- Tumor Volume (10 mpk biw, day 2): 209 ± 31 mm^3
- Body Weight (10 mpk biw, day 4): 22.4 ± 1.7 g
- Tumor Volume (10 mpk biw, day 4): 269 ± 23 mm^3
- Body Weight (10 mpk biw, day 7): 22.6 ± 1.9 g
- Tumor Volume (10 mpk biw, day 7): 419 ± 22 mm^3
- Body Weight (10 mpk biw, day 9): 22.4 ± 1.8 g
- Tumor Volume (10 mpk biw, day 9): 442 ± 23 mm^3
- Body Weight (10 mpk biw, day 11): 22.3 ± 1.9 g
- Tumor Volume (10 mpk biw, day 11): 442 ± 26 mm^3
- Body Weight (10 mpk biw, day 14): 22.7 ± 2.0 g
- Tumor Volume (10 mpk biw, day 14): 421 ± 31 mm^3
- Best response at 10 mg/kg (NCI-H1975, 10 mg/kg): CR
- TGI (NCI-H1975, 1 mpk, biw, day 14): 3.0%
- Tumor Volume (NCI-H1975, 1 mpk, biw, day 14): 1455 ± 130 mm^3
- TGI (NCI-H1975, 3 mpk, biw, day 14): 11.2%
- Tumor Volume (NCI-H1975, 3 mpk, biw, day 14): 1343 ± 349 mm^3
- TGI (NCI-H1975, 10 mpk, biw, day 14): 80.9%
- Tumor Volume (NCI-H1975, 10 mpk, biw, day 14): 421 ± 31 mm^3
- Minimally Effective Dose IV BIW (NCI-H1975, dose leading to tumor-stasis): <10 mg/kg
- tumor volume after regression (after 4 weeks 10 mg/kg biw): below 50 mm3
- body weight effect (at PG-D40): marked body weight lost
